pKi: −log10 of the molar value.
Key:
[1] = target: T1, purified human plasma kallikrein (Homo sapiens, UniProt P03952); experiment: Plasma kallikrein inhibition assay, chromogenic substrate S-2302 (Ki); format: biochemical
T1 construct: Plasma prekallikrein is a zymogen of a trypsin-like serine protease; purchased Enzyme Research Laboratories
Experimental: (§1) The effectiveness of compounds of the present invention as inhibitors of the coagulation Factors XIa, VIIa, IXa, Xa, XIIa, plasma kallikrein or thrombin, can be determined using a relevant purified serine protease, respectively, and an appropriate synthetic substrate. The rate of hydrolysis of the chromogenic or fluorogenic substrate by the relevant serine protease was measured both in the absence and presence of compounds of the present invention. […] A decrease in the rate of absorbance or fluorescence change in the presence of inhibitor is indicative of enzyme inhibition. Such methods are known to one skilled in the art. The results of this assay are expressed as the inhibitory constant, Ki.
Plasma kallikrein determinations were made in 0.1 M sodium phosphate buffer at a pH of 7.5 containing 0.1-0.2 M sodium chloride and 0.5% PEG 8000. Determinations were made using purified human plasma kallikrein (Enzyme Research Laboratories) at a final assay concentration of 200 pM and the synthetic substrate S-2302 (H-(D)-Pro-Phe-Arg-pNA; Chromogenix) at a concentration of 0.00008-0.0004 M.
(§2) Values of Ki were determined by allowing the protease to react with the substrate in the presence of the inhibitor.
(§3) Reactions were allowed to go for periods of 20-180 minutes (depending on the protease) and the velocities (rate of absorbance or fluorescence change versus time) were measured.
(§4) The following relationships were used to calculate Ki values: (Vmax*S)/(Km+S) (vo−vs)/vs=I/(Ki(1+S/Km)) for a competitive inhibitor with one binding site; or vs/vo=A+((B−A)/1+((IC50/(I)^n))); and Ki=IC50/(1+S/Km) for a competitive inhibitor where: […]

[2] = target: T2, purified human Factor XIa (Homo sapiens, UniProt P03951); experiment: Factor XIa inhibition assay, chromogenic substrate S-2366 (Ki); format: biochemical
T2 construct: purchased Haematologic Technologies
Experimental: as §1
Factor XIa determinations were made in 50 mM HEPES buffer at pH 7.4 containing 145 mM NaCl, 5 mM KCl, and 0.1% PEG 8000 (polyethylene glycol; JT Baker or Fisher Scientific). Determinations were made using purified human Factor XIa at a final concentration of 25-200 pM (Haematologic Technologies) and the synthetic substrate S-2366 (pyroGlu-Pro-Arg-pNA; Chromogenix or AnaSpec) at a concentration of 0.0002-0.001 M.
as §2, §3, §4

T1 sequence (P03952 391-638 limits assumed): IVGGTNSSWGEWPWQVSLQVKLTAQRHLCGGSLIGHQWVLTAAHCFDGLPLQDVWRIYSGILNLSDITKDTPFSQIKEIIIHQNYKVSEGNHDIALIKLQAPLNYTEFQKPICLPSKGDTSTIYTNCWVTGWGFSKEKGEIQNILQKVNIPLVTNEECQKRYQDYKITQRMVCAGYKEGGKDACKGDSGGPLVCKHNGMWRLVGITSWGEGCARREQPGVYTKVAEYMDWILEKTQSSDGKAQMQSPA
T1 sequence (P03952 20-390 partner limits assumed): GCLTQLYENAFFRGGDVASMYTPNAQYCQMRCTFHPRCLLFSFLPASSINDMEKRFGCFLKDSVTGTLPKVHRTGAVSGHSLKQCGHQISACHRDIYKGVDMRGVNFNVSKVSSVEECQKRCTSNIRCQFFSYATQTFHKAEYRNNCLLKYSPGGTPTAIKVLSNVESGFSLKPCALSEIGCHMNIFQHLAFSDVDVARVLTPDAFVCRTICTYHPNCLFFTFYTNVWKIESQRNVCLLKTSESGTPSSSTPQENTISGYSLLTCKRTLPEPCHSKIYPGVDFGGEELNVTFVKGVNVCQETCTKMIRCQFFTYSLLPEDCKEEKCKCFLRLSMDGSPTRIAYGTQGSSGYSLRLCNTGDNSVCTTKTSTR
T2 sequence (P03951 388-625 limits assumed): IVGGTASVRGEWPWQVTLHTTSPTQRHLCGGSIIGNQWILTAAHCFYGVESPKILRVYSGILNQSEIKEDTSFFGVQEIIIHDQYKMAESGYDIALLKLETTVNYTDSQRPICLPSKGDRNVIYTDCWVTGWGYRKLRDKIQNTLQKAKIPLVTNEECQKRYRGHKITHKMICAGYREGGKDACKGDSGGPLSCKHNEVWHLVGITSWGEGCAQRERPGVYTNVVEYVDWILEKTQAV
T2 sequence (P03951 19-387 partner limits assumed): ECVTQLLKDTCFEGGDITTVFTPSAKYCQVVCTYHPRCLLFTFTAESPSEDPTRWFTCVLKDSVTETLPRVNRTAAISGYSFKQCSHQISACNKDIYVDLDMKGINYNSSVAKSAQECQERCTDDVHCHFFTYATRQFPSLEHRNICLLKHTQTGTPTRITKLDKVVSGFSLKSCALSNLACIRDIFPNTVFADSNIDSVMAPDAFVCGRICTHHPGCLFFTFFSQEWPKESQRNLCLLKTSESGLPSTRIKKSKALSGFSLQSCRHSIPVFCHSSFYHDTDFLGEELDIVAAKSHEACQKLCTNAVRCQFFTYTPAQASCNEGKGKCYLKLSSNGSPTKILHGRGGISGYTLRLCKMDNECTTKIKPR

Structure (SMILES) | pKi [1] | pKi [2]
C[C@@H]1CCC[C@H](N2CCC(c3cc(Cl)ccc3-n3cc(Cl)nn3)=CC2=O)c2cc(ccn2)-c2c(cnn2CCOC(C)(C)C)NC1=O [Example 34, (9R,13S)-3-[2-(tert-butoxy)ethyl]-13-{4-[5-chloro-2-(4-chloro-1H-1,2,3-triazol-1-yl)phenyl]-6-oxo-1,2,3,6-tetrahydropyridin-1-yl}-9-methyl-3,4,7,15-tetraazatricyclo[12.3.1.0^2,6]octadeca-1(18),2(6),4,14,16-pentaen-8-one] | 7.30 | 8.96
C[C@@H]1CCC[C@H](N2CCC(c3c(-c4cnn(C(F)F)c4)ccc(Cl)c3F)=CC2=O)c2cc(ccn2)-c2c(cnn2C)NC1=O [Example 41, (9R,13S)-13-(4-{3-chloro-6-[1-(difluoromethyl)-1H-pyrazol-4-yl]-2-fluorophenyl}-6-oxo-1,2,3,6-tetrahydropyridin-1-yl)-3,9-dimethyl-3,4,7,15-tetraazatricyclo[12.3.1.0^2,6]octadeca-1(18),2(6),4,14,16-pentaen-8-one] | 7.47 | 9.00
[2H]C([2H])([2H])n1ncc2c1-c1ccnc(c1)[C@@H](N1CCC(c3cc(Cl)ccc3-n3cc(C(F)(F)F)nn3)=CC1=O)CCC[C@@H](C)C(=O)N2 [Example 42, (9R,13S)-13-(4-{5-chloro-2-[4-(trifluoromethyl)-1H-1,2,3-triazol-1-yl]phenyl}-6-oxo-1,2,3,6-tetrahydropyridin-1-yl)-3-(^2H3)methyl-9-methyl-3,4,7,15-tetraazatricyclo[12.3.1.0^2,6]octadeca-1(18),2(6),4,14,16-pentaen-8-one] | 8.15 | 10.00
C[C@@H]1CCC[C@H](N2CCC(c3cc(Cl)ccc3-n3cc(Cl)nn3)=CC2=O)c2cccc(n2)-c2c(cnn2C)NC1=O [Example 43, (9R,13S)-13-{4-[5-chloro-2-(4-chloro-1H-1,2,3-triazol-1-yl)phenyl]-6-oxo-1,2,3,6-tetrahydropyridin-1-yl}-3,9-dimethyl-3,4,7,18-tetraazatricyclo[12.3.1.0^2,6]octadeca-1(18),2(6),4,14,16-pentaen-8-one] | 6.96 | 8.39
C[C@@H]1CCC[C@H](n2ccc(-c3c(Cl)ccc(Cl)c3F)cc2=O)c2cc(ccn2)-c2c(cnn2C)NC1=O [Example 44, (9R,13S)-13-[4-(3,6-dichloro-2-fluorophenyl)-2-oxo-1,2-dihydropyridin-1-yl]-3,9-dimethyl-3,4,7,15-tetraazatricyclo[12.3.1.0^2,6]octadeca-1(18),2(6),4,14,16-pentaen-8-one] | 8.24 | 8.66
C[C@@H]1CCC[C@H](N2CCC(c3c(C(F)(F)F)ccc(Cl)c3F)=CC2=O)c2cc(ccn2)-c2nn(-c3cncnc3)cc2NC1=O [Example 47, (9R,13S)-13-{4-[3-chloro-2-fluoro-6-(trifluoromethyl)phenyl]-6-oxo-1,2,3,6-tetrahydropyridin-1-yl}-9-methyl-4-(pyrimidin-5-yl)-3,4,7,15-tetraazatricyclo[12.3.1.0^2,6]octadeca-1(18),2,5,14,16-pentaen-8-one] | 7.89 | 8.27
C[C@@H]1CCC[C@H](N2CCC(c3cc(Cl)ccc3-n3cc(Cl)nn3)=CC2=O)c2cccc(c2)-c2c(cnn2C)NC1=O [Example 48, (9R,13S)-13-{4-[5-chloro-2-(4-chloro-1H-1,2,3-triazol-1-yl)phenyl]-6-oxo-1,2,3,6-tetrahydropyridin-1-yl}-3,9-dimethyl-3,4,7-triazatricyclo[12.3.1.0^2,6]octadeca-1(18),2(6),4,14,16-pentaen-8-one] | 8.26 | 9.89
C[C@@H]1CCC[C@H](N2CCC(c3c(C(F)(F)F)ccc(Cl)c3F)=CC2=O)c2cccc(c2)-c2c(cnn2C)NC1=O [Example 49, (9R,13S)-13-{4-[3-chloro-2-fluoro-6-(trifluoromethyl)phenyl]-6-oxo-1,2,3,6-tetrahydropyridin-1-yl}-3,9-dimethyl-3,4,7-triazatricyclo[12.3.1.0^2,6]octadeca-1(18),2(6),4,14,16-pentaen-8-one] | 7.16 | 8.49
C[C@H]1C(=O)Nc2cnn(C)c2-c2cc(F)cc(c2)[C@@H](N2CCC(c3cc(Cl)ccc3-n3cc(Cl)nn3)=CC2=O)CCC1F (stereo partly drawn) [Example 50, (9S,13S)-13-{4-[5-chloro-2-(4-chloro-1H-1,2,3-triazol-1-yl)phenyl]-6-oxo-1,2,3,6-tetrahydropyridin-1-yl}-10,16-difluoro-3,9-dimethyl-3,4,7-triazatricyclo[12.3.1.0^2,6]octadeca-1(18),2(6),4,14,16-pentaen-8-one] | 8.10 | 10.00

Other lines, results leading:

pKi [1] | pKi [2] | Structure (SMILES)
7.49 | 9.09 | C[C@@H]1CCC[C@H](N2CCC(c3cc(Cl)ccc3-n3cc(Cl)nn3)=CC2=O)c2cc(ccn2)-c2c(cnn2CCO)NC1=O [Example 35, (9R,13S)-13-{4-[5-chloro-2-(4-chloro-1H-1,2,3-triazol-1-yl)phenyl]-6-oxo-1,2,3,6-tetrahydropyridin-1-yl}-3-(2-hydroxyethyl)-9-methyl-3,4,7,15-tetraazatricyclo[12.3.1.0^2,6]octadeca-1(18),2(6),4,14,16-pentaen-8-one]
8.30 | 8.77 | C[C@@H]1CCC[C@H](N2CCC(c3c(Br)ccc(Cl)c3F)=CC2=O)c2cc(ccn2)-c2c(cnn2C)NC1=O [Example 36, (9R,13S)-13-[4-(6-bromo-3-chloro-2-fluorophenyl)-6-oxo-1,2,3,6-tetrahydropyridin-1-yl]-3,9-dimethyl-3,4,7,15-tetraazatricyclo[12.3.1.0^2,6]octadeca-1(18),2(6),4,14,16-pentaen-8-one]
7.80 | 8.33 | C[C@@H]1CCC[C@H](N2CCC(c3cc(Cl)ccc3Br)=CC2=O)c2cc(ccn2)-c2c(cnn2C)NC1=O [Example 37, (9R,13S)-13-[4-(2-bromo-5-chlorophenyl)-6-oxo-1,2,3,6-tetrahydropyridin-1-yl]-3,9-dimethyl-3,4,7,15-tetraazatricyclo[12.3.1.0^2,6]octadeca-1(18),2(6),4,14,16-pentaen-8-one]
6.92 | 8.74 | C[C@@H]1CCC[C@H](N2CCC(c3cc(Cl)ccc3-c3cnn(C(F)F)c3)=CC2=O)c2cc(ccn2)-c2c(cnn2C)NC1=O [Example 38, (9R,13S)-13-(4-{5-chloro-2-[1-(difluoromethyl)-1H-pyrazol-4-yl]phenyl}-6-oxo-1,2,3,6-tetrahydropyridin-1-yl)-3,9-dimethyl-3,4,7,15-tetraazatricyclo[12.3.1.0^2,6]octadeca-1(18),2(6),4,14,16-pentaen-8-one]
6.92 | 8.96 | C[C@@H]1CCC[C@H](N2CCC(c3c(C#N)ccc(Cl)c3F)=CC2=O)c2cc(ccn2)-c2c(cnn2C)NC1=O [Example 39, 4-chloro-2-{1-[(9R,13S)-3,9-dimethyl-8-oxo-3,4,7,15-tetraazatricyclo[12.3.1.0^2,6]octadeca-1(18),2(6),4,14,16-pentaen-13-yl]-6-oxo-1,2,3,6-tetrahydropyridin-4-yl}-3-fluorobenzonitrile]
8.22 | 10.00 | C[C@@H]1CCC[C@H](N2CCC(c3cc(Cl)ccc3-n3cc(C(F)(F)F)nn3)=CC2=O)c2cc(ccn2)-c2c(cnn2C)NC1=O [Example 40, (9R,13S)-13-(4-{5-chloro-2-[4-(trifluoromethyl)-1H-1,2,3-triazol-1-yl]phenyl}-6-oxo-1,2,3,6-tetrahydropyridin-1-yl)-3,9-dimethyl-3,4,7,15-tetraazatricyclo[12.3.1.0^2,6]octadeca-1(18),2(6),4,14,16-pentaen-8-one]
7.27 | 7.89 | CCn1ncc2c1-c1ccnc(c1)[C@@H](N1CCC(c3c(F)ccc(Cl)c3F)=CC1=O)CCC[C@@H](C)C(=O)N2 [Example 45, (9R,13S)-13-[4-(3-chloro-2,6-difluorophenyl)-6-oxo-1,2,3,6-tetrahydropyridin-1-yl]-3-ethyl-9-methyl-3,4,7,15-tetraazatricyclo[12.3.1.0^2,6]octadeca-1(18),2(6),4,14,16-pentaen-8-one]
7.34 | 8.46 | CC(=O)c1ccc(Cl)c(F)c1C1=CC(=O)N([C@H]2CCC[C@@H](C)C(=O)Nc3cnn(C)c3-c3ccnc2c3)CC1 [Example 46, (9R,13S)-13-[4-(6-acetyl-3-chloro-2-fluorophenyl)-6-oxo-1,2,3,6-tetrahydropyridin-1-yl]-3,9-dimethyl-3,4,7,15-tetraazatricyclo[12.3.1.0^2,6]octadeca-1(18),2(6),4,14,16-pentaen-8-one]

— US10273236B2, “Macrocyclic factor XIa inhibitors bearing heterocyclic groups” (Bristol-Myers Squibb Company, priority 2014, dated 2019)
